In patent publication US20050124626A1, “Novel compounds” (priority 2002, published 2005):
Where a name gives a salt, the structure may show the parent alone.

Biological target: T1, human cloned 5-HT6 receptors (Homo sapiens, UniProt P50406)
T1 construct: expressed in transfected cells
Assay: 5-HT6 receptor affinity following the procedures outlined in WO98/27081
Format: binding
Details: read-out: pKi values at human cloned 5-HT6 receptors (converted)
Excerpt: Compounds can be tested following the procedures outlined in WO98/27081.

T1 sequence (P50406 whole entry): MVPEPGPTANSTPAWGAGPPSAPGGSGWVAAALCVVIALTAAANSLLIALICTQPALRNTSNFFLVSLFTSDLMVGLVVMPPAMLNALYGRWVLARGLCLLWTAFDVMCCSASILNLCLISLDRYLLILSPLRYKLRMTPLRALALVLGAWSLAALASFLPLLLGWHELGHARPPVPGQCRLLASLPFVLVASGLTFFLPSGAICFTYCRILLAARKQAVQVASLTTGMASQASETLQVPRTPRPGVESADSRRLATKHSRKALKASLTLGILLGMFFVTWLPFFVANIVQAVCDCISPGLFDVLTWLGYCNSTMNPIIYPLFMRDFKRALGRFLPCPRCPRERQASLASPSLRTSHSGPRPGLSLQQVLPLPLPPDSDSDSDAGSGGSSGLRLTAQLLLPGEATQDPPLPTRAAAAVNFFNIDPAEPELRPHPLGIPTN

| Ki [nM] | SMILES |
| --- | --- |
| < 10 | Cc1cc(S(=O)(=O)c2ccccc2)c2cccc(N3CCNCC3)c2n1 [Example E13, 2-Methyl-4-phenylsulfonyl-8-piperazin-1-ylquinoline hydrochloride] |
| < 10 | O=S(=O)(c1ccccc1)c1ccnc2c(N3CCNCC3)cccc12 [Example E10, 4-Phenylsulfonyl-8-piperazin-1-yl quinoline] |
| < 10 | O=S(=O)(c1ccccc1)c1ccnc2c(N3CCNCC3)cccc12 [Example E11, 4-Phenylsulfonyl-8-piperazin-1-yl-quinoline hydrochloride] |
| < 10 | Cc1cc(S(=O)(=O)c2ccccc2F)c2cccc(N3CCNCC3)c2n1 [Example E14] |
| < 10 | Cc1cc(N2CCNCC2)c2ccc(S(=O)(=O)c3ccccc3)cc2n1 [Example E9, 2-Methyl-4-piperazin-1-yl-7-phenylsulfonylquinoline hydrochloride] |
| < 10 | Cc1cc(S(=O)(=O)c2ccccc2)c2cccc(N3CCNCC3)c2n1 [Example E12, 2-Methyl-4-phenylsulfonyl-8-piperazin-1-yl-quinoline] |
| < 10 | Cc1cc(S(=O)(=O)c2cccc(Cl)c2)c2cccc(N3CCNCC3)c2n1 [Example E16] |
| < 31.6 | O=S(=O)(c1ccccc1F)c1c[nH]c2c(N3CCNCC3)nccc12 [Example E7, 3-(2-Fluorophenyl)sulfonyl-7-piperazin-1-yl-1H-pyrrolo[2,3-c]pyridine hydrochloride] |
| < 10 | Cc1cc(S(=O)(=O)c2cccc(F)c2)c2cccc(N3CCNCC3)c2n1 [Example E15] |
| < 31.6 | O=S(=O)(c1ccccc1)c1c[nH]c2c(N3CCNCC3)nccc12 [Example E6, 7-piperazin-1-yl-3-phenylsulfonyl-1H-pyrrolo[2,3-c]pyridine hydrochloride] |
| < 31.6 | O=S(=O)(c1cccc(F)c1)c1c[nH]c2c(N3CCNCC3)nccc12 [Example E8, 3-(3-Fluorophenyl)sulfonyl-7-piperazin-1-yl-1H-pyrrolo[2,3-c]pyridine hydrochloride] |
